From US5420335A, “Parenteral nutrients based on watersoluble glycerol bisacetoacetates” (priority 1993, dated 1995)

Columns and labels:
[1] = Overall evaluation as a parenteral nutrient; type: in vivo, rat (male Sprague-Dawley); details: in words
Method: Water was available ad libitum at all times.
The vein was then ligated dorsally to the catheter. […] Body weights were measured daily.
Infusate volume, oral food intake, body weight and urinary volume and total nitrogen were monitored daily for each rat. Infusate volume and food intake were determined by weighing the appropriate container at the start and end of each 24 hr. period. Measurements were recorded between 9 and 10 AM each day. At the end of the 7th day, rats were sacrificed, and blood and liver were harvested. Plasma was separated for measurement of free fatty acids, glucose, and ketone bodies. Liver was weighed and a sample was fixed in buffered formalin for gross histology.
The data were analyzed for significance by the one-way analysis of variance with repeated measures and comparing the effect of dietary treatment on each day. […] The null hypothesis was concluded invalid if p≤0.05. The analysis of variance was computed on a SAS statistical package.

[2] = in words; cited from earlier work

Molecule	efficacy as parenteral nutrient / energy source [1]	enhance the absorption of certain agents in the intestine [2]
Partially Reduced Pentaacetoacetyl-glucose [Compound 3]	ineffective as parenteral nutrients	
CC(=O)CC(=O)OCC(O)COC(=O)CC(C)=O [1,3-bisacetoacetylglycerol]		enhance the absorption of certain agents in the intestine
CC(=O)OCC1COC(C)(C)O1 (stereo not shown) [2,3-isopropylidene-1-acetate]		enhance the absorption of certain agents in the intestine
CC(=O)CC(=O)OCC1COC(C)(C)O1 (stereo not shown) [1,2-isopropylideneglyceryl 3-acetoacetate]		enhance the absorption of certain agents in the intestine
